{"source": "ChEMBL document CHEMBL1201862", "about": "“PubChem BioAssay data set” (2004)", "key": {"[1]": {"biological_target": "T1, Hepatocyte nuclear factor 4-alpha (Homo sapiens, UniProt P41235)", "T1 sequence (P41235 whole entry)": "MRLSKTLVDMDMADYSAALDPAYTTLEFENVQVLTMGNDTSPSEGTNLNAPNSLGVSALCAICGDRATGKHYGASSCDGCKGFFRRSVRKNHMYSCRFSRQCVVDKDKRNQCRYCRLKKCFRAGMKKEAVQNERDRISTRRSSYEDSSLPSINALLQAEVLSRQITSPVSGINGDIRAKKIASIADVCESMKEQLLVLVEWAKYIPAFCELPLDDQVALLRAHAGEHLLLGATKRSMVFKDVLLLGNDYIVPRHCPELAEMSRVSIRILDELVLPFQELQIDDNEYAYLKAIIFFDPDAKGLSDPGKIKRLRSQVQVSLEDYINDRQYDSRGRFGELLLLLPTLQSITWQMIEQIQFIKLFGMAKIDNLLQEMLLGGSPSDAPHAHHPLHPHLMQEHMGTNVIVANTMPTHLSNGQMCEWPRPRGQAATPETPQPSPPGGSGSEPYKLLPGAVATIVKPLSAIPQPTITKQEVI", "format": "functional, cell-based"}, "Bcl-2-like protein 10": {"biological_target": "Bcl-2-like protein 10 (Homo sapiens, UniProt Q9HD36)", "sequence (Q9HD36 whole entry)": "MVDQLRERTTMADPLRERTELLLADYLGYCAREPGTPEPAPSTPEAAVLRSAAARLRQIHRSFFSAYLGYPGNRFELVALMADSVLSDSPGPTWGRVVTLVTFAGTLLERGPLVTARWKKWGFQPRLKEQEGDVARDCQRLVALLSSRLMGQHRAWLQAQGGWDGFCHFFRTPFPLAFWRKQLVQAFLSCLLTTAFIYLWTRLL", "test": "Bcl-B/TR3 peptide binding disruption – biochemical, fluorescence polarization, FITC-TR3 peptide, selectivity assay for Bfl-1 inhibitor project, primary screen (AID 748)"}, "[2]": {"biological_target": "Induced myeloid leukemia cell differentiation protein Mcl-1 (Homo sapiens, UniProt Q07820)", "sequence (Q07820 whole entry)": "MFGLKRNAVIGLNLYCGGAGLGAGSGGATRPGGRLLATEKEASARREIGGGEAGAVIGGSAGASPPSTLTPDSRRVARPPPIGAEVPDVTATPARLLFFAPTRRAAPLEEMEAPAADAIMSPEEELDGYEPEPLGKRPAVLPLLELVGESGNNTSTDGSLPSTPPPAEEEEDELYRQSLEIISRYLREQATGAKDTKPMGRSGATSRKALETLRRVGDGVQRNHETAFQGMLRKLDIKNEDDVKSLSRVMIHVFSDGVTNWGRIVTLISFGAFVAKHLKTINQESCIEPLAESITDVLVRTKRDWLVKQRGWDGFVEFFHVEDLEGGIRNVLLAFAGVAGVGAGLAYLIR", "format": "functional"}, "[3]": {"biological_target": "Glyceraldehyde-3-phosphate dehydrogenase (Homo sapiens, UniProt P04406)", "sequence (P04406 whole entry)": "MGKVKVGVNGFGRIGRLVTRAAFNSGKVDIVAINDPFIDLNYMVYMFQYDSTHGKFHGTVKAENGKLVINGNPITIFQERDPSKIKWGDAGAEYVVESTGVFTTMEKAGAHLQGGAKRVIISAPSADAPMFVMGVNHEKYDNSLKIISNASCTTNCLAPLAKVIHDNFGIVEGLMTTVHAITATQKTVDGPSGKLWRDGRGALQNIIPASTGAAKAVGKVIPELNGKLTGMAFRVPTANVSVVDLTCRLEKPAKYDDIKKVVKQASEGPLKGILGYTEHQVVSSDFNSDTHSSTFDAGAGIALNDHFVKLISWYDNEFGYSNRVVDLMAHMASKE"}, "[4]": {"biological_target": "T2, Tyrosine-protein phosphatase non-receptor type 22 (Homo sapiens, UniProt Q9Y2R2)", "T2 sequence (Q9Y2R2 whole entry)": "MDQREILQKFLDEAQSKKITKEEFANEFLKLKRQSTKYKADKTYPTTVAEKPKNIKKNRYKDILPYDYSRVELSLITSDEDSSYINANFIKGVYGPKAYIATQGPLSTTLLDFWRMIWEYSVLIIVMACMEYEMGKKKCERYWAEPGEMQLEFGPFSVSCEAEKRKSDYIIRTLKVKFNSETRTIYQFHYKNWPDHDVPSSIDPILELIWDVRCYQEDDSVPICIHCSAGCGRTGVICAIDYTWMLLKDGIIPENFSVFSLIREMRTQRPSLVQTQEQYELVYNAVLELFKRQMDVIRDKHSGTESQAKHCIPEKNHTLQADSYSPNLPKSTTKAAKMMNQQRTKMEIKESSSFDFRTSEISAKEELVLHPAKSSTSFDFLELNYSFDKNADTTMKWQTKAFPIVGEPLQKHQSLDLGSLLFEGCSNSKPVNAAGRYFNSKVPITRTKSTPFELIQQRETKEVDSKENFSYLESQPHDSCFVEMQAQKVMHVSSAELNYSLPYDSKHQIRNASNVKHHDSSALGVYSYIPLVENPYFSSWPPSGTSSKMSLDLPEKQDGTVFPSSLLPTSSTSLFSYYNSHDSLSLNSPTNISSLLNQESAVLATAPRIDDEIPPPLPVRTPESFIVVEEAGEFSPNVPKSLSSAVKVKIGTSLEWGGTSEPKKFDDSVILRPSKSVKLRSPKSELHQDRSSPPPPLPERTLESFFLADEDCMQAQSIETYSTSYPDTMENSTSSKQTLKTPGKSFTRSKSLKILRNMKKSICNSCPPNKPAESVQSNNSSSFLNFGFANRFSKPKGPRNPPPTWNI", "test": "SAR LYP1 Fluorescent Assay using OMFP substrate for In Vitro dose response studies - Set 3. [Related pubchem assays (depositor defined):AID1779, AID1784, AID2140, AID2686]", "format": "functional"}, "[5]": {"biological_target": "T2, Tyrosine-protein phosphatase non-receptor type 22", "test": "inhibition of lymphoid tyrosine phosphatase LYP – biochemical, pCAP fluorogenic substrate, fluorescence, set 3, SAR follow-up (AID 449727)", "format": "functional"}, "[6]": {"biological_target": "Tyrosine-protein phosphatase non-receptor type 12 (Homo sapiens, UniProt Q05209)", "sequence (Q05209 whole entry)": "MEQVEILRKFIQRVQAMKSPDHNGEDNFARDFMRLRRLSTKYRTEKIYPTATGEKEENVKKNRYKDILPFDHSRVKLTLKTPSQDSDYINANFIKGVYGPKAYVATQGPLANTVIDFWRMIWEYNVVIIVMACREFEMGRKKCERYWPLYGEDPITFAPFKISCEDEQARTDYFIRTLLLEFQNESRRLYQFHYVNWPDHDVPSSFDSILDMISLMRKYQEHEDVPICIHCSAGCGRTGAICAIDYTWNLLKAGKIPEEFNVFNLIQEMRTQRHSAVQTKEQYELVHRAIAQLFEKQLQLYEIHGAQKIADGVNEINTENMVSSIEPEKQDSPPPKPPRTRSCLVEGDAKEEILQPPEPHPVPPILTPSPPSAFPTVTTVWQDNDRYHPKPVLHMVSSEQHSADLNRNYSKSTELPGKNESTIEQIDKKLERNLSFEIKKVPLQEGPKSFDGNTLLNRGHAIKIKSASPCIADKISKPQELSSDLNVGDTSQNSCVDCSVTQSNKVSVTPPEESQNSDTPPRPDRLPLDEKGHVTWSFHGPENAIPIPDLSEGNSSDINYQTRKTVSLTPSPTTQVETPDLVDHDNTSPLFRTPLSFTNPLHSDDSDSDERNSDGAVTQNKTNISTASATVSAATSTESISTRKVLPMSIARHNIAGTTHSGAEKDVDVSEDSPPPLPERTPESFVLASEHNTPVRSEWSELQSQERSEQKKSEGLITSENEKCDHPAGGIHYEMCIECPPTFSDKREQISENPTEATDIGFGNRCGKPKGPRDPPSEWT", "test": "SAR Selectivity Analysis of small molecule inhibitors of PEST using pCAP in a fluorescence assay. [Related pubchem assays (depositor defined):AID1779, AID1784, AID2135]", "format": "functional"}, "[7]": {"biological_target": "T3, Dual specificity protein phosphatase 6 (Rattus norvegicus, UniProt Q64346)", "T3 sequence (Q64346 whole entry)": "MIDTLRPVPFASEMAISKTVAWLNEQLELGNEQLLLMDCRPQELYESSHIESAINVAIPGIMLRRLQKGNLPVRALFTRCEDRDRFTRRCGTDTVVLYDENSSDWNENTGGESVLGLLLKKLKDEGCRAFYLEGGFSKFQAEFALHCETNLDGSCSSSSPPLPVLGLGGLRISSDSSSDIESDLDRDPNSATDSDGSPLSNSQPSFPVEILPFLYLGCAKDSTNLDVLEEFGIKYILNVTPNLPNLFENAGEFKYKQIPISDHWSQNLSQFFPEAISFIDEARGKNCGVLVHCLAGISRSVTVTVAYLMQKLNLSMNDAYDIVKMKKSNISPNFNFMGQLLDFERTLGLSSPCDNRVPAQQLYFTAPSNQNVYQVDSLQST", "format": "functional"}, "[8]": {"biological_target": "Heat shock 70 kDa protein 1A (Homo sapiens, UniProt P0DMV8)", "sequence (P0DMV8 whole entry)": "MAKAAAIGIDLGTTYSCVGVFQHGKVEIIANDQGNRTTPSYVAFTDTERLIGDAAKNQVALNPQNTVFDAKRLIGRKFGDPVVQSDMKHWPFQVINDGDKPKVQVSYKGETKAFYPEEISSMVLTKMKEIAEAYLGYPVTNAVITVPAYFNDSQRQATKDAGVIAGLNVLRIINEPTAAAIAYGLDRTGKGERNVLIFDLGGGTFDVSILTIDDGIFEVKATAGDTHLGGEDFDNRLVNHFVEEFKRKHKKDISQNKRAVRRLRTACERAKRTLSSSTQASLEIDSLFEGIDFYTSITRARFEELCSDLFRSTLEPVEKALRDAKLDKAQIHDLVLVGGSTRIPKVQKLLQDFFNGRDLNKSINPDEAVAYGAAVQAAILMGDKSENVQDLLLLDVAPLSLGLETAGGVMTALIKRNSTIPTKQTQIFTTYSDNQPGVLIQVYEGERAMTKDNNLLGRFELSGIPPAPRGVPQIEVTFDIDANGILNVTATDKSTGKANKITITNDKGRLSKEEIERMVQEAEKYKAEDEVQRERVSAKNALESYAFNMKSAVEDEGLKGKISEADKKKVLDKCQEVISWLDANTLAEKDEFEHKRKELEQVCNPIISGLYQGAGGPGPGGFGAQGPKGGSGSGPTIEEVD", "test": "inhibition of Hsp70 binding activity – biochemical, fluorescence polarization, SAR follow-up (AID 1072)"}, "Caspase-6": {"biological_target": "T4, Caspase-6 (Homo sapiens, UniProt P55212)", "T4 sequence (P55212 whole entry)": "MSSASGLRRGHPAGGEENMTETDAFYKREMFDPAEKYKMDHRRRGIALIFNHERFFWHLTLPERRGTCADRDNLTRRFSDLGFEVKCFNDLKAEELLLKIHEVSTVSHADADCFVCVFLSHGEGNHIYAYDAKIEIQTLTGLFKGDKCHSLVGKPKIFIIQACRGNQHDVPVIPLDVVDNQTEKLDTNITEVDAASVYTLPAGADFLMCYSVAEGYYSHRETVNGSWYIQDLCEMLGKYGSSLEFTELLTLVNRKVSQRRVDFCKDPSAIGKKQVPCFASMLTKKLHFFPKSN", "test": "inhibition of CASP6 peptide cleavage – biochemical, VEID-R110 fluorescence, cherry-pick, dose response (AID 720632)"}, "[9]": {"biological_target": "Heat shock cognate 71 kDa protein (Homo sapiens, UniProt P11142)", "test": "In Vitro Hsc70 Dose Response Fluorescence Polarization Assay. [Related pubchem assays: 1072 ]"}, "[10]": {"biological_target": "T5, Tyrosine-protein phosphatase non-receptor type 7 (Homo sapiens, UniProt P35236)", "T5 sequence (P35236 whole entry)": "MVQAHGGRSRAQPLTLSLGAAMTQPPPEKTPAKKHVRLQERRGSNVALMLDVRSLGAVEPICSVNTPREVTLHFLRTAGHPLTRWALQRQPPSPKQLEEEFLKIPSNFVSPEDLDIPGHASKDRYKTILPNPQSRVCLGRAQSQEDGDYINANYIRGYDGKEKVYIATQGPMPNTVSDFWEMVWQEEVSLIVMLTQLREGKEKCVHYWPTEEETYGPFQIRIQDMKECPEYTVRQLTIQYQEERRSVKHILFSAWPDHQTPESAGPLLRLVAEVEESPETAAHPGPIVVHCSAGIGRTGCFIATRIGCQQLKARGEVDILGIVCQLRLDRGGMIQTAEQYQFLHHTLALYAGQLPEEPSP", "format": "functional"}, "Caspase-7": {"biological_target": "Caspase-7 (Homo sapiens, UniProt P55210)", "sequence (P55210 24-198 limits assumed)": "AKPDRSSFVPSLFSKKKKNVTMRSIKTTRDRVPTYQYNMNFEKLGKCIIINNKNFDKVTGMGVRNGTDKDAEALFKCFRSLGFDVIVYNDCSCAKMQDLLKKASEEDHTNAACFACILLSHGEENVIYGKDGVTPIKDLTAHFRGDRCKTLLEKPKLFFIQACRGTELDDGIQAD", "sequence (P55210 207-303 limits assumed)": "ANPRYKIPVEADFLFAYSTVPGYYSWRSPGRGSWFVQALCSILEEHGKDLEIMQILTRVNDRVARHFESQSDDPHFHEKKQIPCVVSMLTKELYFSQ", "test": "caspase-7 enzyme inhibition, selectivity check – biochemical, DEVD-R110 fluorescence, cherry-pick, selectivity assay for caspase-6 inhibitor project, dose response (AID 743295)", "format": "functional"}, "[11]": {"biological_target": "DNA (cytosine-5)-methyltransferase 1 (Homo sapiens, UniProt P26358)", "sequence (P26358 whole entry)": "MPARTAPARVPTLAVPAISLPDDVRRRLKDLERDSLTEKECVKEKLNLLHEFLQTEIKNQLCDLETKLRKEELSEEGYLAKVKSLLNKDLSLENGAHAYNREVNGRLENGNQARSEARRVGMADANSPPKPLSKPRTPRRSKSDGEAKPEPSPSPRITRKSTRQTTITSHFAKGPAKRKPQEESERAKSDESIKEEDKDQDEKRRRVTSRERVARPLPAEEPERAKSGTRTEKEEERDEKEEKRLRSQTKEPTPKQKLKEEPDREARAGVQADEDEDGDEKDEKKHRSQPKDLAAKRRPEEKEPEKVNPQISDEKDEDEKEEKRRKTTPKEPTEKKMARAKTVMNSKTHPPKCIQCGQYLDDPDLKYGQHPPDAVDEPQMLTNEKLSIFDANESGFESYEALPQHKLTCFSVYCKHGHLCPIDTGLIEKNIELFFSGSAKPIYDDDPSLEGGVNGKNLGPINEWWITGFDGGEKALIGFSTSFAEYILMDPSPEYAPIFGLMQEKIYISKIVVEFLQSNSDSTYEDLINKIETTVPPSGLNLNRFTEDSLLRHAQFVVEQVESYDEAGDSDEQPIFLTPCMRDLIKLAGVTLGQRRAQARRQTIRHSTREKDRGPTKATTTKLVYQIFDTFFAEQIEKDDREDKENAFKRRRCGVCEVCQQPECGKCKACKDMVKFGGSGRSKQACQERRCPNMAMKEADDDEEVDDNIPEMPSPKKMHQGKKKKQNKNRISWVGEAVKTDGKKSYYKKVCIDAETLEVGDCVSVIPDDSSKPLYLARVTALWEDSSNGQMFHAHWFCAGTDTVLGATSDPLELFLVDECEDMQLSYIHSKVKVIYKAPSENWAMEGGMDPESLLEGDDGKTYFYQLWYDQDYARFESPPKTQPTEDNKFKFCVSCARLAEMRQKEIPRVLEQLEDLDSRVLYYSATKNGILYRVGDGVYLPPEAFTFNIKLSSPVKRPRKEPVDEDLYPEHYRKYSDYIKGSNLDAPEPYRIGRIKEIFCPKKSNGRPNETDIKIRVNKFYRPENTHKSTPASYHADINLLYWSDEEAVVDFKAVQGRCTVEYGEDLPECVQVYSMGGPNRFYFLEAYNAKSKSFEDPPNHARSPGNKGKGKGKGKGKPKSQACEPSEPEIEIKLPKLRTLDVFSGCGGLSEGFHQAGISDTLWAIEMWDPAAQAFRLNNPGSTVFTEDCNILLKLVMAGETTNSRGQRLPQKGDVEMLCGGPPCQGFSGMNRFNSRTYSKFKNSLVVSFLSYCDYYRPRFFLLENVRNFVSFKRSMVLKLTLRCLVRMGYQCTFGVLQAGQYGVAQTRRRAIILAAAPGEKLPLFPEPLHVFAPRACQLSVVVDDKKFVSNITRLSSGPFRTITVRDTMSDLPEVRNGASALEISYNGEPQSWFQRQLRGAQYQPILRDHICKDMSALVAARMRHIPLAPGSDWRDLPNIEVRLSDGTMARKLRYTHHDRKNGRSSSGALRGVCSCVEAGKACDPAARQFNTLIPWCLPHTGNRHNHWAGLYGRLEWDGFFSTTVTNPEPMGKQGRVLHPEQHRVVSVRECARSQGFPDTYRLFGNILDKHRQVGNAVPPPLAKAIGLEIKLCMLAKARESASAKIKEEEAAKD", "test": "inhibition of DNA methylation by DNMT1 – biochemical, fluorescent molecular beacon, confirmation (AID 602386)", "format": "functional"}, "[12]": {"biological_target": "T3, Dual specificity protein phosphatase 6"}, "Caspase-8": {"biological_target": "Caspase-8 (Homo sapiens, UniProt Q14790)", "test": "inhibitors of purified CASP8 protease – biochemical, Z-IETD-R110 fluorescence, cherry-picked samples, selectivity assay for caspase-6 inhibitor project, dose response (AID 743294)"}, "[13]": {"biological_target": "T6, Neuropeptide Y receptor type 2 (Homo sapiens, UniProt P49146)", "T6 sequence (P49146 whole entry)": "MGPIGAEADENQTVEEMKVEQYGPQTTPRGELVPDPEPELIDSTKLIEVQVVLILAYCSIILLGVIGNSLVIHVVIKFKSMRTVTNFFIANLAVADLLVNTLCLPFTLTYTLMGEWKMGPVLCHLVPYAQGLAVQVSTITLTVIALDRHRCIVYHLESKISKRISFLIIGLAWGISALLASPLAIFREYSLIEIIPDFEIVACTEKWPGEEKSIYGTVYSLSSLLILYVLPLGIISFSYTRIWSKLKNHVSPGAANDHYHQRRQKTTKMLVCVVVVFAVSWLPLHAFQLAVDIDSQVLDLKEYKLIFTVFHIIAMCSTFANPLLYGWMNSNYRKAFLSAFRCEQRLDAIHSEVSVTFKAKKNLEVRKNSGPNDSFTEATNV", "test": "Fluorescence-based cell-based high-throughput dose response assay for agonists of NPY-Y2. [Related pubchem assays: 1703 (Screening assay (CNGC inhibitors).), 1359 (Screening assay (NPY-Y2 potentiators or agonists).), 1304 (Screening assay (NPY-Y1 potentiators or agonists).), 1710 (Screening assay (NPY-Y2 agonists).), 1791 (Summary AID.)]", "format": "functional"}, "[14]": {"biological_target": "T7, Neuropeptide Y receptor type 1 (Homo sapiens, UniProt P25929)", "T7 sequence (P25929 whole entry)": "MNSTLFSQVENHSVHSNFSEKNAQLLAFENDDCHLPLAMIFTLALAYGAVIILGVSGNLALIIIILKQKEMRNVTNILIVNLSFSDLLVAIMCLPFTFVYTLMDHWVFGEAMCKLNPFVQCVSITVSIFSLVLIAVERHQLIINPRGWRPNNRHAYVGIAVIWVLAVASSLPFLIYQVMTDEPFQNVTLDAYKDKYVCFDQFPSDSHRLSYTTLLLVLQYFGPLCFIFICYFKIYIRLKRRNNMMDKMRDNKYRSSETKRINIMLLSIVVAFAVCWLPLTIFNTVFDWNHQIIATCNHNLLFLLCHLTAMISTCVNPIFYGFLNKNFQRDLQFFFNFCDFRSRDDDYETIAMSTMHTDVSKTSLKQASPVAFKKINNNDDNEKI", "test": "Fluorescence-based counterscreen for agonists of NPY-Y2: cell-based high-throughput dose response assay for agonists of NPY-Y1.", "format": "functional"}, "HEK293": {"tested_on": "HEK293", "test": "Fluorescence-based counterscreen for potentiators or agonists of NPY-Y2: cell-based high-throughput dose response assay to identify inhibitors of cyclic nucleotide gated ion channel (CNGC) activity. In this assay, the parental HEK293 cell line transfected with a cyclic-nucleotide gated ion channel (CNGC)-based cAMP sensor is used to measure inhibition of isoproterenol-induced CNGC activity by test compound.", "format": "functional", "settings": "Homo sapiens"}}, "note": "The source made the active and inactive calls. Rule as the data show it, for most assays here: actives have a measured IC50 and inactives only a lower limit."}
{"smiles": "Cc1ccc(NC(=O)CSc2nnc(-c3ccco3)c(-c3ccco3)n2)cc1", "values": [{"measurement": "IC50", "setting": "[1]", "value": "1.6 µM (active)"}, {"measurement": "IC50", "setting": "Bcl-2-like protein 10", "value": "19 µM (active)"}, {"measurement": "IC50", "setting": "[2]", "value": "3.01 µM (active)"}]}
{"smiles": "COc1cc(/C=C2\\SC(N(C)c3ccc(O)cc3)=NC2=O)ccc1OCC(=O)O", "values": [{"measurement": "IC50", "setting": "[3]", "value": "> 100 µM (not active)"}, {"measurement": "IC50", "setting": "[4]", "value": "> 100 µM (inactive)"}, {"measurement": "IC50", "setting": "[5]", "value": "> 100 µM (inactive)"}, {"measurement": "IC50", "setting": "[6]", "value": "> 100 µM (inactive)"}]}
{"smiles": "O=C(O)C1Nc2c(Cl)cc(Cl)c(Cl)c2C2C=CCC12", "note": "(stereo not given)", "values": [{"measurement": "IC50", "setting": "[7]", "value": "12 µM (active)"}, {"measurement": "IC50", "setting": "[3]", "value": "> 100 µM (not active)"}, {"measurement": "IC50", "setting": "[8]", "value": "> 100 µM (not active)"}, {"measurement": "AC50", "setting": "Caspase-6", "value": "2 µM (active)"}, {"measurement": "IC50", "setting": "[9]", "value": "> 100 µM (not active)"}, {"measurement": "IC50", "setting": "[10]", "value": "9.63 µM (active)"}, {"measurement": "AC50", "setting": "Caspase-7", "value": "34.1 µM (active)"}, {"measurement": "IC50", "setting": "[11]", "value": "4.36 µM (active)"}, {"measurement": "IC50", "setting": "[12]", "value": "14.2 µM (active)"}, {"measurement": "AC50", "setting": "Caspase-8", "value": "> 70 µM (inactive)"}]}
{"smiles": "Cc1c([N+](=O)[O-])c(C(=O)Sc2ccc(Br)cc2)nn1C", "values": [{"measurement": "EC50", "setting": "[13]", "value": "> 35.4 µM (not active)"}, {"measurement": "EC50", "setting": "[14]", "value": "> 35.4 µM (not active)"}, {"measurement": "EC50", "setting": "HEK293", "value": "> 11.8 µM (not active)"}]}
